Data taken from ChEMBL document CHEMBL4765227, “Hit to lead optimization of a series of N-[4-(1,3-benzothiazol-2-yl)phenyl]acetamides as monoacylglycerol lipase inhibitors with potential anticancer activity” (Eur J Med Chem, 2016).

What was measured:
Assay type in all cases: functional
Conditions in all cases: read-out: GI
PC-3 = test: Growth inhibition of human PC-3 cells at 10 uM incubated for 48 hrs by sulforhodamine B assay relative to control
MDA-MB-468 = test: Growth inhibition of human MDA-MB-468 cells at 10 uM incubated for 48 hrs by sulforhodamine B assay relative to control
HT-29 = test: Growth inhibition of human HT-29 cells at 10 uM incubated for 48 hrs by sulforhodamine B assay relative to control
UACC-257 = test: Growth inhibition of human UACC-257 cells at 10 uM incubated for 48 hrs by sulforhodamine B assay relative to control
SR = test: Growth inhibition of human SR cells at 10 uM incubated for 48 hrs by sulforhodamine B assay relative to control
HL-60(TB) = test: Growth inhibition of human HL-60(TB) cells at 10 uM incubated for 48 hrs by sulforhodamine B assay relative to control
SF-268 = test: Growth inhibition of human SF-268 cells at 10 uM incubated for 48 hrs by sulforhodamine B assay relative to control
RXF 393 = test: Growth inhibition of human RXF 393 cells at 10 uM incubated for 48 hrs by sulforhodamine B assay relative to control
M14 = test: Growth inhibition of human M14 cells at 10 uM incubated for 48 hrs by sulforhodamine B assay relative to control
RPMI-8226 = test: Growth inhibition of human RPMI-8226 cells at 10 uM incubated for 48 hrs by sulforhodamine B assay relative to control
U-251 = test: Growth inhibition of human U-251 cells at 10 uM incubated for 48 hrs by sulforhodamine B assay relative to control
TK-10 = test: Growth inhibition of human TK-10 cells at 10 uM incubated for 48 hrs by sulforhodamine B assay relative to control
SF-539 = test: Growth inhibition of human SF-539 cells at 10 uM incubated for 48 hrs by sulforhodamine B assay relative to control
LOX IMVI = test: Growth inhibition of human LOX IMVI cells at 10 uM incubated for 48 hrs by sulforhodamine B assay relative to control
Hs-578T = test: Growth inhibition of human Hs-578T cells at 10 uM incubated for 48 hrs by sulforhodamine B assay relative to control
NCI-H522 = test: Growth inhibition of human NCI-H522 cells at 10 uM incubated for 48 hrs by sulforhodamine B assay relative to control
SF-295 = test: Growth inhibition of human SF-295 cells at 10 uM incubated for 48 hrs by sulforhodamine B assay relative to control
ACHN = test: Growth inhibition of human ACHN cells at 10 uM incubated for 48 hrs by sulforhodamine B assay relative to control
SK-OV-3 = test: Growth inhibition of human SK-OV-3 cells at 10 uM incubated for 48 hrs by sulforhodamine B assay relative to control
MDA-MB-231 = test: Growth inhibition of human MDA-MB-231 cells at 10 uM incubated for 48 hrs by sulforhodamine B assay relative to control
NCI-H226 = test: Growth inhibition of human NCI-H226 cells at 10 uM incubated for 48 hrs by sulforhodamine B assay relative to control
COLO 205 = test: Growth inhibition of human COLO 205 cells at 10 uM incubated for 48 hrs by sulforhodamine B assay relative to control
OVCAR-4 = test: Growth inhibition of human OVCAR-4 cells at 10 uM incubated for 48 hrs by sulforhodamine B assay relative to control
CCRF-CEM = test: Growth inhibition of human CCRF-CEM cells at 10 uM incubated for 48 hrs by sulforhodamine B assay relative to control
UO-31 = test: Growth inhibition of human UO-31 cells at 10 uM incubated for 48 hrs by sulforhodamine B assay relative to control
DU-145 = test: Growth inhibition of human DU-145 cells at 10 uM incubated for 48 hrs by sulforhodamine B assay relative to control
HCT-15 = test: Growth inhibition of human HCT-15 cells at 10 uM incubated for 48 hrs by sulforhodamine B assay relative to control
NCI-H23 = test: Growth inhibition of human NCI-H23 cells at 10 uM incubated for 48 hrs by sulforhodamine B assay relative to control
UACC-62 = test: Growth inhibition of human UACC-62 cells at 10 uM incubated for 48 hrs by sulforhodamine B assay relative to control
OVCAR-5 = test: Growth inhibition of human OVCAR-5 cells at 10 uM incubated for 48 hrs by sulforhodamine B assay relative to control
HCC 2998 = test: Growth inhibition of human HCC 2998 cells at 10 uM incubated for 48 hrs by sulforhodamine B assay relative to control
HCT-116 = test: Growth inhibition of human HCT-116 cells at 10 uM incubated for 48 hrs by sulforhodamine B assay relative to control
NCI-H460 = test: Growth inhibition of human NCI-H460 cells at 10 uM incubated for 48 hrs by sulforhodamine B assay relative to control
MDA-MB-435 = test: Growth inhibition of human MDA-MB-435 cells at 10 uM incubated for 48 hrs by sulforhodamine B assay relative to control
KM12 = test: Growth inhibition of human KM12 cells at 10 uM incubated for 48 hrs by sulforhodamine B assay relative to control
T47D = test: Growth inhibition of human T47D cells at 10 uM incubated for 48 hrs by sulforhodamine B assay relative to control
SNB-19 = test: Growth inhibition of human SNB-19 cells at 10 uM incubated for 48 hrs by sulforhodamine B assay relative to control
SN12C = test: Growth inhibition of human SN12C cells at 10 uM incubated for 48 hrs by sulforhodamine B assay relative to control
NCI-H322M = test: Growth inhibition of human NCI-H322M cells at 10 uM incubated for 48 hrs by sulforhodamine B assay relative to control
A549 = test: Growth inhibition of human A549/ATCC cells at 10 uM incubated for 48 hrs by sulforhodamine B assay relative to control
SK-MEL-5 = test: Growth inhibition of human SK-MEL-5 cells at 10 uM incubated for 48 hrs by sulforhodamine B assay relative to control
HOP-92 = test: Growth inhibition of human HOP-92 cells at 10 uM incubated for 48 hrs by sulforhodamine B assay relative to control
SW-620 = test: Growth inhibition of human SW-620 cells at 10 uM incubated for 48 hrs by sulforhodamine B assay relative to control
OVCAR-8 = test: Growth inhibition of human OVCAR-8 cells at 10 uM incubated for 48 hrs by sulforhodamine B assay relative to control

NS(=O)(=O)c1ccc(NCC(=O)Nc2ccc(-c3nc4ccccc4s3)cc2)cc1
inhibition of growth at 10 µM (PC-3): 35.3%
inhibition of growth at 10 µM (MDA-MB-468): 95.7%
inhibition of growth at 10 µM (HT-29): 25.5%
inhibition of growth at 10 µM (UACC-257): 2.83%
inhibition of growth at 10 µM (SR): 84%
inhibition of growth at 10 µM (HL-60(TB)): 66.6%
inhibition of growth at 10 µM (SF-268): 74.9%
inhibition of growth at 10 µM (RXF 393): 0.08%
inhibition of growth at 10 µM (M14): 54.4%
inhibition of growth at 10 µM (RPMI-8226): 63.3%
inhibition of growth at 10 µM (U-251): 28.7%
inhibition of growth at 10 µM (TK-10): -5.51%
inhibition of growth at 10 µM (SF-539): 8.62%
inhibition of growth at 10 µM (LOX IMVI): 87%
inhibition of growth at 10 µM (Hs-578T): 1.67%
inhibition of growth at 10 µM (NCI-H522): 164%
inhibition of growth at 10 µM (SF-295): 1.17%
inhibition of growth at 10 µM (ACHN): -4.96%
inhibition of growth at 10 µM (SK-OV-3): -5.77%
inhibition of growth at 10 µM (MDA-MB-231): 55%
inhibition of growth at 10 µM (NCI-H226): 16.3%
inhibition of growth at 10 µM (COLO 205): 1.47%
inhibition of growth at 10 µM (OVCAR-4): 32.8%
inhibition of growth at 10 µM (CCRF-CEM): 93.8%
inhibition of growth at 10 µM (UO-31): 25.6%
inhibition of growth at 10 µM (DU-145): 53%
inhibition of growth at 10 µM (HCT-15): 53.4%
inhibition of growth at 10 µM (NCI-H23): 25.3%
inhibition of growth at 10 µM (UACC-62): 62%
inhibition of growth at 10 µM (OVCAR-5): -5.64%
inhibition of growth at 10 µM (HCC 2998): 12.4%
inhibition of growth at 10 µM (HCT-116): 74.9%
inhibition of growth at 10 µM (NCI-H460): 7.45%
inhibition of growth at 10 µM (MDA-MB-435): 23%
inhibition of growth at 10 µM (KM12): 38.4%
inhibition of growth at 10 µM (T47D): 53.6%
inhibition of growth at 10 µM (SNB-19): 25.7%
inhibition of growth at 10 µM (SN12C): 52.2%
inhibition of growth at 10 µM (NCI-H322M): 12%
inhibition of growth at 10 µM (A549): 7.37%
inhibition of growth at 10 µM (SK-MEL-5): 28.7%
inhibition of growth at 10 µM (HOP-92): 26.5%
inhibition of growth at 10 µM (SW-620): 36.3%
inhibition of growth at 10 µM (OVCAR-8): 17.3%

O=C(CNc1nc(-c2ccc(Cl)cc2)cs1)Nc1ccc(-c2nc3ccccc3s2)cc1
inhibition of growth at 10 µM (PC-3): 9.25%
inhibition of growth at 10 µM (MDA-MB-468): 140%
inhibition of growth at 10 µM (HT-29): -8.34%
inhibition of growth at 10 µM (UACC-257): -0.39%
inhibition of growth at 10 µM (SR): 10.3%
inhibition of growth at 10 µM (HL-60(TB)): 0.71%
inhibition of growth at 10 µM (SF-268): 9.23%
inhibition of growth at 10 µM (RXF 393): -6.02%
inhibition of growth at 10 µM (M14): 11.8%
inhibition of growth at 10 µM (RPMI-8226): 12.6%
inhibition of growth at 10 µM (U-251): 8.44%
inhibition of growth at 10 µM (TK-10): 33.5%
inhibition of growth at 10 µM (SF-539): 3.03%
inhibition of growth at 10 µM (LOX IMVI): 4.39%
inhibition of growth at 10 µM (Hs-578T): 8.73%
inhibition of growth at 10 µM (NCI-H522): 6.86%
inhibition of growth at 10 µM (SF-295): 1.37%
inhibition of growth at 10 µM (ACHN): -5.08%
inhibition of growth at 10 µM (SK-OV-3): 4.97%
inhibition of growth at 10 µM (MDA-MB-231): 15.3%
inhibition of growth at 10 µM (NCI-H226): 19.7%
inhibition of growth at 10 µM (COLO 205): 6.21%
inhibition of growth at 10 µM (OVCAR-4): 29.5%
inhibition of growth at 10 µM (CCRF-CEM): 7.04%
inhibition of growth at 10 µM (UO-31): 25.1%
inhibition of growth at 10 µM (DU-145): 5.04%
inhibition of growth at 10 µM (HCT-15): -10.2%
inhibition of growth at 10 µM (NCI-H23): 12.4%
inhibition of growth at 10 µM (UACC-62): 8.08%
inhibition of growth at 10 µM (OVCAR-5): 9.63%
inhibition of growth at 10 µM (HCC 2998): 2.47%
inhibition of growth at 10 µM (HCT-116): 4.49%
inhibition of growth at 10 µM (NCI-H460): 8.75%
inhibition of growth at 10 µM (MDA-MB-435): -4.48%
inhibition of growth at 10 µM (KM12): 0.97%
inhibition of growth at 10 µM (T47D): 43.9%
inhibition of growth at 10 µM (SNB-19): 1.83%
inhibition of growth at 10 µM (SN12C): -0.85%
inhibition of growth at 10 µM (NCI-H322M): 8.37%
inhibition of growth at 10 µM (A549): 0.99%
inhibition of growth at 10 µM (SK-MEL-5): 12.3%
inhibition of growth at 10 µM (HOP-92): 7.09%
inhibition of growth at 10 µM (SW-620): 0.12%
inhibition of growth at 10 µM (OVCAR-8): 2.01%
